Values after ≈ are worked out from the molar mass of the structure shown. Read-outs that look alike come from different tables or passages of the source.
Columns and labels:
[1] = test system: CPA-resistant human sarcoma cells (OS31 osteosarcoma); details: mice with xenografts of CPA-resistant human sarcoma cells
Description: CB17 female scid*/* mice (Taconic Farms, Germantown, N.Y.) were implanted with tumor subcutaneous flank tumors. […] For transplantation with OS1 tumor, mice were anesthetized with 4% isoflurane. After a small incision was made in the flank of the mouse, and a 4 mm by 4 mm section of tumor implanted subcutaneously.
When the tumors were approximately 0.20 to 0.7 cm in diameter, tumor-bearing mice were randomized into groups of 5 to 8 mice with 1 treatment group and 1 control group. Treated mice received tasidotin at a dose of 90 mg/kg/day as an intraperitoneal injection daily for 5 days starting on days 1 and 21. Assuming a spherical tumor, the volume was determined by the formula: mm^3=*/6(D)d^2, where D is the maximal diameter and d is the diameter perpendicular to D. Volumes are expressed as relative tumor volumes (RTV) where the tumor volume at any given time point is divided by the starting tumor volume. The RTV for treated and control mice were measured a minimum of once per week.
A partial response is defined as greater than 50% regression in tumor volume (RTV<0.5) but with a measurable tumor mass of greater than 0.10 cm^3. Loss of measurable tumor mass (<0.10 cm^3) at any point during the treatment period (6 weeks) was defined as a complete response (CR). […]

[2] = test system: MX-1 human mammary tumors; assay: MX-1 human mammary tumor xenograft (Example 7); type: in vivo, athymic NCr-nu/nu mice
Procedure: Each concentration was then aliquoted for daily use, frozen, stored at −20° C., and thawed for daily use.
The control groups were treated either ip or po with the vehicle (saline).
Study Duration: The study was terminated 50 days after tumor implantation.

[3] = type: physicochemical; details: pH 7 buffer, approximately 25° C.
[4] = type: physicochemical; details: temperature and duration of storage
[5] = Solubility and reconstitution time (Example 16); type: physicochemical
[6] = pH (Example 16); type: physicochemical
[7] = test system: MX-1 human mammary tumor; assay: MX-1 human mammary tumor xenograft (Example 8)
Description: Animal Care: Five-weeks-old female athymic NCr-nu/nu mice were purchased from Harlan (Prattville, Ala.).
Tumor Model: Thirty-to-forty mg fragments of MX-1 human mammary tumor maintained in an in vivo passage were implanted sc in mice in the mammary fat pad using a 12-gauge trocar needle and allowed to grow. The day of tumor implantation was designated as day 0. […] A sufficient number of mice were implanted so that tumors in a weight range as narrow as possible were selected for the trial on the day of treatment initiation (day 6 after tumor implantation). Those animals selected with tumors in the proper size range were assigned to the various treatment groups so that the median tumor weights on the first day of treatment were as close to each other as possible (144-162 mg).
All dosing solutions were kept on ice after formulation and were administered within 30 min. All injections were administered on the basis of exact body weight with the injection volume being 0.2 mL/10 g body weight.
Drug Treatment: The experiment consisted of 16 treatment groups of eight mice per group and two vehicle-treated control groups with ten mice each for a total of 148 mice on the first day of treatment. All agents (and vehicle) were administered daily for five consecutive days (q1d×5). […] The control groups were treated either ip (group no. 1) or po (group no. 10) with the vehicle (saline).
Tumor Measurements and Body Weights: The sc tumors were measured and the animals were weighed twice weekly starting with the first day of treatment. Tumor volume was determined by caliper measurements (mm) and using the formula for an ellipsoid sphere: L×W^2/2=mm^3, where L and W refer to the larger and smaller perpendicular dimensions collected at each measurement. This formula is also used to calculate tumor weight, assuming unit density (1 mm^3=1 mg.).
Study Duration: The study was terminated 52 days after tumor implantation. Any animal that became moribund or whose tumor became ulcerated and reached 4,000 mg was euthanized prior to study termination.
Parameters Evaluated: Number of nonspecific deaths, number of partial and complete tumor regressions, number of tumor-free survivors, and the individual animals' times to reach two tumor mass doublings were determined. The median time to reach two tumor mass doubling in the treatment groups (T) and control group (C) was used in the calculation of the overall delay in the growth of the median tumor (T-C).
Statistical Analysis: The individual animal's time to reach two tumor mass doublings was used as the endpoint in a Student's t-test/Mann Whitney rank sum test in order to compare statistically the growth data between groups.

SMILES: O=P1(N(CCCl)CCCl)NCCCO1 (stereo not drawn) [CPA, cyclophosphamide]
- effect of therapy on sarcoma growth [1]: no effect

SMILES: O=P(O)(NCCCl)NCCCl [IPM, isophosphoramide mustard]
- maximum loss in mean body weight ([2]; ip q1d×5, 24 mg/kg/dose): 5%
- tumor growth delay (T-C) ([2]; ip q1d×5, 24 mg/kg/dose): 2.6 days
- maximum loss in mean body weight ([2]; ip q1d×5, 36 mg/kg/dose): 0%
- maximum loss in mean body weight ([2]; po q1d×5, 81 mg/kg/dose): 5%
- tumor growth delay (T-C) ([2]; po q1d×5, 81 mg/kg/dose): 4.0 days
- maximum loss in mean body weight ([2]; po q1d×5, 120 mg/kg/dose): 5%
- tumor growth delay (T-C) ([2]; po q1d×5, 120 mg/kg/dose): 4.6 days
- % Purity ([3]; 0.5 hours): 89.5%
- % Purity ([3]; 1.0 hours): 80.3%
- % Purity ([3]; 2.0 hours): 64.8%
- % Purity ([3]; 3.0 hours): 52.1%
- % Purity ([3]; reconstitution time 0 hours): 100.00%
- Current Stability Data Summary: No change in purity at [4]: −70° C., 2 years
- Solubility at 25° C. (saline) [5]: 14 mg/mL (≈ 63.3 mM)
- pH [6]: 3.02
- maximum loss in mean body weight ([7]; ip q1d×5, 24 mg/kg/dose): 2%
- tumor growth delay (T-C) ([7]; ip q1d×5, 24 mg/kg/dose): 0.3 days
- maximum loss in mean body weight ([7]; ip q1d×5, 36 mg/kg/dose): 8%
- maximum loss in mean body weight ([7]; po q1d×5, 81 mg/kg/dose): 9%
- tumor growth delay (T-C) ([7]; po q1d×5, 81 mg/kg/dose): 2.3 days
- maximum loss in mean body weight ([7]; po q1d×5, 120 mg/kg/dose): 18%
- tolerability ([7]; po q1d×5, 120 mg/kg/dose): toxic
- deaths ([7]; po q1d×5, 120 mg/kg/dose, eight mice per group): two deaths
